# In patent US8741947B2, “Biologically active macrolides, compositions, and uses thereof” (The United States of America, as represented by the …, priority 2000, dated 2014):
# Experiments:
# [1] = target: Neurospora crassa vacuolar membrane V-ATPase; assay: V-ATPase inhibitory assay, Neurospora crassa vacuolar membrane; format: biochemical; details: read-out: V-ATPase (Ki, nM) NCVM
# Description: (§1) The V-ATPase inhibitory assays were performed on representative compound(s) of the present invention using non-mammalian or mammalian (e.g., bovine cromaffin granule) V-ATPases as described by Bowman et al., Proc. Natl. Acad. Sci. USA, 85, 7972-7976, 1988.
# [2] = target: Chromaffin Granule Membrane V-ATPase; assay: V-ATPase inhibitory assay, chromaffin granule membrane; format: biochemical; details: Chromaffin Granule Membrane V-ATPase (bovine); read-out: V-ATPase (Ki, nM) CGM
# Description: as §1
# [3] = system: leukemia (MOLT-4) human tumor cell line; assay: 2-day in vitro cytotoxicity assay; format: cell-based; details: MOLT-4 leukemia cell line, 2-day in vitro assay
# Description: (§2) A 2.0 mg solution of chondropsin A in pyridine-d5 was kept at room temperature and ^1H NMR spectra were periodically acquired. […] After 7 days, the pyridine was removed under reduced pressure and the residue was purified by HPLC as described above to give 0.6 mg of a compound that by FABMS, HPLC retention time, ^1H NMR, and HSQC data, was identical to chondropsin D. Thus, chondropsin D can be prepared from chondropsin A via a base-catalyzed transesterification reaction in which the ester migrates from O-34 to O-67. The characterization of chondropsin D was facilitated by spectral analysis of the product of the corresponding base-catalyzed transesterification reaction of the dimethyl ester of chondropsin A (FIG. 1A, compound (3)), which produced the dimethyl ester of chondropsin D (FIG. 1A, compound (9)). Chondropsin D was evaluated for cytotoxic activity towards melanoma (LOX) and leukemia (MOLT-4) human tumor cell lines in a 2-day in vitro assay, the procedure for which is described in Bokesch et al., J. Nat. Prod., 62, 633-635 (1999).
# [4] = system: melanoma (LOX) human tumor cell line; assay: 2-day in vitro cytotoxicity assay; format: cell-based; details: 2-day in vitro assay
# Description: as §2
SMILES,Ki [1] [nM],Ki [2] [nM],IC50 (cytotoxic activity) [3] [µg/mL],IC50 (cytotoxic activity) [4]
"CO/C1=C\C(C)=C\[C@@H](C)[C@@H](O)[C@@H](C)C/C(C)=C/C=C/[C@H](OC)[C@@H]([C@@H](C)[C@@H](O)[C@H](C)[C@@]2(O)C[C@@H](O)[C@H](C)[C@@H](C(C)C)O2)OC1=O [Bafilomycin A1, bafilomycin A1, reference compound]",13,6,–,–
"COC(=O)C(C)(C)C(O)C(C)C(=O)C(C)(C)C=CC(=O)NC(CC(C)C)C(O)C(C)C=C(C)C(O)C(C)CCC(O)C(C)C(=O)NC(C(C)O)C1OC(=O)C(C(O)C(=O)O)NC(=O)C=CC=CCCC=CC=CCC2CC(C)CC(CC(O)C(C)C(O)C(C)=CC(C)C(O)C(C)=CCC(OC(=O)CC(O)C(=O)O)C1C)O2 (centres unmarked) [Chondropsin A, 73-deoxy, 73-deoxychondropsin A]",100,3000,–,–
"COC(=O)C(C)(C)C(O)C(C)C(=O)C(C)(C)C=CC(=O)NC(C(O)C(C)C)C(O)C(C)C=C(C)C(O)C(C)CCC(O)C(C)C(=O)NC(C(C)O)C1OC(=O)C(C(O)C(=O)O)NC(=O)C=CC=CCCC=CC=CCC2CC(C)CC(CC(O)C(C)C(O)C(C)=CC(C)C(O)C(C)=CCC(OC(=O)CC(O)C(=O)O)C1C)O2 (centres unmarked) [Chondropsin A, chondropsin A]",800,> 10000,–,–
"COC(=O)C(O)CC(=O)OC1CC=C(C)C(O)C(C)C=C(C)C(O)C(C)C(O)CC2CC(C)CC(CC=CC=CCCC=CC=CC(=O)NC(C(O)C(=O)OC)C(=O)OC(C(NC(=O)C(C)C(O)CCC(C)C(O)C(C)=CC(C)C(O)C(NC(=O)C=CC(C)(C)C(=O)C(C)C(O)C(C)(C)C(=O)OC)C(O)C(C)C)C(C)O)C1C)O2 (centres unmarked) [Chondropsin A, dimethyl ester, chondropsin A dimethyl ester]",50,500,–,–
"COC(=O)C(C)(C)C(O)C(C)C(=O)C(C)(C)C=CC(=O)NC(C(O)C(C)C)C(O)C(C)C=C(C)C(O)C(C)CCC(O)C(C)C(=O)NC(C(C)O)C1OC(=O)C(C(O)C(=O)O)NC(=O)C=CC=CCCC=CC=CCC2CC(C)CC(CC(O)C(C)C(O)C(C)=CC(C)C(O)C(C)=CCC(O)C1C)O2 (centres unmarked) [Chondropsin B, chondropsin B]",200,6000,–,–
"CC1=CCC(OC(=O)CC(O)C(=O)O)C(C)C(C(NC(=O)C(C)C(O)CCC(C)C(O)C(C)=CC(C)C(O)C(CC(C)C)NC(=O)C=CC(C)(C)C(=O)C(C)C(O)C(C)C)C(C)O)OC(=O)C(C(O)C(=O)O)NC(=O)C=CC=CCCC=CC=CCC2CC(C)CC(CC(O)C(C)C(O)C(C)=CC(C)C1O)O2 (centres unmarked) [Chondropsin C, chondropsin C]",80,3000,–,–
"COC(=O)C(C)(C)C(O)C(C)C(=O)C(C)(C)C=CC(=O)NC(C(O)C(C)C)C(O)C(C)C=C(C)C(O)C(C)CCC(O)C(C)C(=O)NC1C(C)OC(=O)C(C(O)C(=O)O)NC(=O)C=CC=CCCC=CC=CCC2CC(C)CC(CC(O)C(C)C(O)C(C)=CC(C)C(O)C(C)=CCC(OC(=O)CC(O)C(=O)O)C(C)C1O)O2 (centres unmarked) [Chondropsin D, chondropsin D]",140,> 10000,~0.25,approximately 10 ng/mL
"C/C=C/[C@H]1O[C@@](O)([C@@H](C)[C@H](O)[C@H](C)[C@H]2OC(=O)/C(OC)=C/C(C)=C/[C@@H](C)[C@@H](O)[C@@H](CC)[C@@H](O)[C@H](C)C/C(C)=C/C=C/[C@@H]2OC)C[C@@H](O[C@H]2C[C@@H](O)[C@H](OC(N)=O)[C@@H](C)O2)[C@@H]1C [Concanamycin A, concanamycin A, reference compound]",4,6,–,–
"CC/C=C\C=C/C(=O)N/C=C/C[C@H]1C[C@@H](O)[C@@H](C)C/C=C/Cc2cccc(O)c2C(=O)O1 [Salicylihalamide A, salicylihalamide A, reference compound]",> 10000,6.5,–,–
